Test results reported in US20110212997A1, “PIPERIDINE-4-ACETAMIDE DERIVATIVES AND THEIR USE AS MONOAMINE NEUROTRANSMITTER RE-UPTAKE INHIBITORS” (NEUROSEARCH A/S, priority 2008, published 2011).
Structures can show the parent of a compound that is named as a salt.

Question: With `CCN(C(=O)CC1CCN(C)CC1)c1ccc(Cl)c(Cl)c1Cl` (as salt: fumaric acid salt) [Compound D18, N-Ethyl-2-(1-methyl-piperidin-4-yl)-N-(2,3,4-trichloro-phenyl)-acetamide] as the compound, how does the melting point read?
Answer: Its melting point is 181 to 183 °C.

Question: For `CCN(C(=O)CC1CCN(C)CC1)c1ccc(Cl)cc1Cl` (as salt: fumaric acid salt) [Compound D14, N-(2,4-Dichloro-phenyl)-N-ethyl-2-(1-methyl-piperidin-4-yl)-acetamide], which melting point is on record?
Answer: Its melting point is 175 to 177 °C.

Question: For `CCN(C(=O)CC1CCNCC1)c1ccc(Cl)c(Cl)c1Cl` (as salt: fumaric acid salt) [Compound C10, N-Ethyl-2-piperidin-4-yl-N-(2,3,4-trichloro-phenyl)-acetamide], which melting point is on record?
Answer: Its melting point is 62 to 64 °C.

Question: Which melting point does the source give for `CCN(C(=O)CC1CCNCC1)c1ccc(Br)c(Cl)c1` (as salt: fumaric acid salt) [Compound D4, N-(4-Bromo-3-chloro-phenyl)-N-ethyl-2-piperidin-4-yl-acetamide] here?
Answer: The melting point was 159 to 161 °C.

Question: For `CCN(C(=O)CC1CCNCC1)c1cc(Cl)cc(Cl)c1` (as salt: fumaric acid salt) [Compound C9, N-(3,5-Dichloro-phenyl)-N-ethyl-2-piperidin-4-yl-acetamide], which melting point is on record?
Answer: Its melting point is 151 to 153 °C.

Question: For `CCN(C(=O)CC1CCNCC1)c1ccc(Cl)c(Br)c1` (as salt: fumaric acid salt) [Compound C13, N-(3-Bromo-4-chloro-phenyl)-N-ethyl-2-piperidin-4-yl-acetamide], which melting point is on record?
Answer: The melting point was 141 to 143 °C.

Question: For `CCN(C(=O)CC1CCNCC1)c1ccc(Br)c(Br)c1` (as salt: fumaric acid salt) [Compound C11, N-(3,4-Dibromo-phenyl)-N-ethyl-2-piperidin-4-yl-acetamide], which melting point is on record?
Answer: Its melting point is 58 to 60 °C.

Question: With `CCN(C(=O)CC1CCNCC1)c1c(Cl)cccc1Cl` (as salt: fumaric acid salt) [Compound C8, N-(2,6-Dichloro-phenyl)-N-ethyl-2-piperidin-4-yl-acetamide] as the compound, how does the melting point read?
Answer: Its melting point is 167 to 169 °C.

Question: Which melting point does the source give for `CCN(C(=O)CC1CCNCC1)c1ccc(Cl)cc1Cl` (as salt: fumaric acid salt) [Compound D5, N-(2,4-Dichloro-phenyl)-N-ethyl-2-piperidin-4-yl-acetamide] here?
Answer: Its melting point is 112 to 114 °C.

Question: Which melting point does the source give for `CN1CCC(CC(=O)N(C)c2ccc(Cl)c(Cl)c2)CC1` (as salt: fumaric acid salt) [Compound D12, N-(3,4-Dichloro-phenyl)-N-methyl-2-(1-methyl-piperidin-4-yl)-acetamide] here?
Answer: The melting point was 57 to 59 °C.

Question: With `CCN(C(=O)CC1CCN(C)CC1)c1ccc(Cl)c(Cl)c1` (as salt: hydrochloric acid salt) [Compound D1, N-(3,4-Dichloro-phenyl)-N-ethyl-2-(1-methyl-piperidin-4-yl)-acetamide] as the compound, how does the melting point read?
Answer: Its melting point is 153 to 155 °C.

Question: With `CCN(C(=O)CC1CCN(C)CC1)c1c(Cl)cccc1Cl` (as salt: fumaric acid salt) [Compound D16, N-(2,6-Dichloro-phenyl)-N-ethyl-2-(1-methyl-piperidin-4-yl)-acetamide] as the compound, how does the melting point read?
Answer: Its melting point is 167 to 169 °C.

Question: For `CCN(C(=O)CC1CCN(C)CC1)c1cccc(Cl)c1Cl` (as salt: fumaric acid salt) [Compound D8, N-(2,3-Dichloro-phenyl)-N-ethyl-2-(1-methyl-piperidin-4-yl)-acetamide], which melting point is on record?
Answer: Its melting point is 51 to 53 °C.

Question: With `CCN(C(=O)CC1CCN(C)CC1)c1cccc2ccccc12` (as salt: fumaric acid salt) [Compound D3, N-Ethyl-2-(1-methyl-piperidin-4-yl)-N-naphthalen-1-yl-acetamide] as the compound, how does the melting point read?
Answer: Its melting point is 63 to 66 °C.

Question: For `CCN(C(=O)CC1CCNCC1)c1cc(Cl)ccc1Cl` (as salt: fumaric acid salt) [Compound C7, N-(2,5-Dichloro-phenyl)-N-ethyl-2-piperidin-4-yl-acetamide], which melting point is on record?
Answer: The melting point was 190 to 192 °C.
